# Read-outs that look alike come from different tables or passages of the source.
# Key:
# SUM159 cells [1] = assay: Cell cycle analysis of SUM159 cells synchronized with nocodazole in G2/M; assay type: cell-based, human
# Method: Cell cycle analysis was performed 72 hr after JQ1 treatment or BRD4 downregulation with doxycycline using propidium iodide (PI) staining. Cells were resuspended in 1 ml of growth medium supplemented with 2 μg/ml PI (Life Technologies) as final concentration. After 60 min at 37° C. in the dark, analysis was performed on a FACS AriaII cytometer (BD Biosciences). The cell cycle was plotted as histogram after excluding doublets. Cell synchronization Procedure. SUM159 cells were treated with nocodazole (200 ng/ml) for 12 h and then cells were tapped to detach from the plates. After washing twice with PBS, cells were replated with or without JQ1 in collagen coated plates. Cells were collected at 0, 3, 6, 12 h time point for FACS and immunoblot analysis.
# SUM159 cells [2] = assay: Apoptosis (sub-G1 fraction and Annexin-V staining); assay type: cell-based, human; conditions: prolonged exposure 48-72 hours, JQ1 500 nM
# Method: Cell viability and growth assays (FIGS. 1A-1B, FIGS. 3A-3E, 3G, FIGS. 5D-5F, FIGS. 6C, 6E, 6I, FIG. 7A, FIG. 10D, FIGS. 14A-14C), cycle, apoptosis, and MDR assays were performed in triplicates and repeated 2-3 times. For cell proliferation assays, cells were plated at 500 cells per well in 96-well plates and treated the next day with inhibitors, DMSO or doxycycline (500 ng). Cells were cultured at 37° C. with 5% CO2 in the media described-above, and cell viability was measured using CellTiter-Glo three days after treatments. For cell growth assays, cells were plated at 5000 (SUM159) or 20000 (SUM149) cells per well in 6-well plates and treated the next day with inhibitors. Cells were counted every three days by cell counter. Cellular apoptosis was analyzed with an APC AnnexinV/7ADD Apoptosis Detection kit (BD Pharmingen). AnnexinV/7AAD assessments and cell cycle graphics were generated using FlowJo software V7.6.1 for Windows (Tree Star). Senescence Beta-gal staining was performed using Senescence β-Galactosidase staining kit from Cell signaling. Briefly, after JQ1 treatment (500 nM) for 72 h, SUM159 and MDA-MB-231 cells were fixed by Fixative Solution for 15 min, followed by β-Galactosidase solution incubation overnight at 37° C. The staining was checked under microscope for the development of blue color. […] The cells were analyzed by fluorescent microscope and FACS. […]
# [3] = system: pSTAT3, pJAK2 and MYC in SUM159 cells; assay: Immunoblot kinetic study of signaling factors after JQ1; assay type: cell-based, human
# Excerpt: Immunoblotting and immunoprecipitation experiments were repeated 2-3 times.
# [4] = system: TNBC cells (SUM159 and MDA-MB-231); assay: Senescence β-galactosidase staining; assay type: cell-based, human; conditions: JQ1 500 nM, 72 h
# Method: Cell viability and growth assays (FIGS. 1A-1B, FIGS. 3A-3E, 3G, FIGS. 5D-5F, FIGS. 6C, 6E, 6I, FIG. 7A, FIG. 10D, FIGS. 14A-14C), cycle, apoptosis, and MDR assays were performed in triplicates and repeated 2-3 times. For cell proliferation assays, cells were plated at 500 cells per well in 96-well plates and treated the next day with inhibitors, DMSO or doxycycline (500 ng). Cells were cultured at 37° C. with 5% CO2 in the media described-above, and cell viability was measured using CellTiter-Glo three days after treatments. For cell growth assays, cells were plated at 5000 (SUM159) or 20000 (SUM149) cells per well in 6-well plates and treated the next day with inhibitors. Cells were counted every three days by cell counter. Cellular apoptosis was analyzed with an APC AnnexinV/7ADD Apoptosis Detection kit (BD Pharmingen). AnnexinV/7AAD assessments and cell cycle graphics were generated using FlowJo software V7.6.1 for Windows (Tree Star). Senescence Beta-gal staining was performed using Senescence β-Galactosidase staining kit from Cell signaling. Briefly, after JQ1 treatment (500 nM) for 72 h, SUM159 and MDA-MB-231 cells were fixed by Fixative Solution for 15 min, followed by β-Galactosidase solution incubation overnight at 37° C. The staining was checked under microscope for the development of blue color. […] The cells were analyzed by fluorescent microscope and FACS.
# [5] = system: tumors derived from SUM159; assay: Xenograft assay, SUM159; assay type: in vivo, mice; conditions: two weeks of JQ1, 50 mg/kg daily
# Method: (§1) For xenograft assays 5-6-weeks old female CrTac:NCr-Foxn1^nu and NOD.Cg-Prkdc^scid Il2rg^tm1Sug/JicTac mice were purchased from Taconic. Tumors were induced by bilateral orthotopic mammary fat pad injection of 1×10^6 cells in 50% Matrigel (BD Biosciences) in DMEM/F12 or Medium 171 (except for IDC50-X cells, which were injected with 3% FBS and 4 mg/ml collagen gel in Medium 171). Animal experiments were conducted following protocol 11-023 approved by the Dana-Farber Cancer Institute Animal Care and Use Committee.
# [6] = system: tumors derived from MDA-MB-231; assay: Xenograft assay, MDA-MB-231; assay type: in vivo, mice; conditions: two weeks of JQ1, 50 mg/kg daily
# Method: as §1
# [7] = system: patient-derived primary human TNBC xenografts; assay: Xenograft assay, patient-derived TNBC; assay type: in vivo, mice; conditions: two weeks of JQ1, 50 mg/kg daily
# Method: as §1
# SUM159 and SUM149 cells = assay: RNA-seq following JQ1 treatment; assay type: cell-based, human; conditions: different time points following JQ1 500 nM
# Method: Quantifying changes in gene expression of SE proximal genes. Genes within 50 kb of SE in SUM159 or SUM149 were identified and filtered for expression status (>1 FPKM expression in any sample), and filtered to remove non poly-adenylated transcripts (e.g. microRNAs). For SUM159, log2 fold changes in gene expression at SE associated genes or all expressed genes was compared at 3, 12, and 24 hours post JQ1 treatment (FIG. 2F). For SUM149, comparisons were made at 12 hours post JQ1 treatment (Extended Data FIG. 3B). The statistical significance of differences between distributions of changes was also assessed using a Welch's two-tailed t test.
# [8] = system: xenografts derived from SUM159R cells; assay: Xenograft assay, SUM159R (BBI-resistant SUM159); assay type: in vivo, mice; conditions: JQ1 for 30 days
# Method: as §1
# [9] = target: chromatin-bound BRD4 in SUM159 cells (Homo sapiens, UniProt O60885); conditions: SUM159, JQ1 exposure
# Method: Chem-seq was performed essentially as described^27. ChIP-seq: SUM159 and SUM159R cells (4×10^7) were grown in SUM Medium. The media were then removed and replaced with media containing 1% formaldehyde (EM grade; tebu-bio) and crosslinked for 8 min. Crosslinking was quenched by adding glycine to a final concentration of 0.2 M. The cells were washed with ice-cold PBS, harvested in PBS, and the cell pellet was washed with PBS. The nuclear fraction was extracted by first resuspending the pellet in 10 ml of LB1 buffer (50 mM HEPES-KOH [pH 7.5], 140 mM NaCl, 1mMEDTA, 10% glycerol, 0.5% NP-40 or Igepal CA-630, and 0.25% Triton X-100) for 10 min at 4° C. Cells were pelleted, resuspended in 10 ml of LB2 buffer (10 mM Tris-HCL [pH 8.0], 200 mM NaCl, 1 mM EDTA, and 0.5 mM EGTA), and mixed for 5 min. Cells were pelleted and resuspended in 300 μl of LB3 buffer (10 mM Tris-HCl [pH 8], 100 mM NaCl, 1 mM EDTA, 0.5 mM EGTA, 0.1% Na-deoxycholate, and 0.5% N-lauroylsarcosine) and sonicated in a covaris sonicator for 10 min. A total of 30 μl of 10% Triton X-100 was added, and lysate was centrifuged for 10 min at 20,000 rcf to purify the debris. The supernatant was then incubated with 100 μl of magnetic beads (Life Technologies) prebound with 20 μg BRD4 antibody (Bethyl, A301-985A), and immunoprecipitation (IP) was conducted overnight in the cold room. […]
# [10] = target: T1, BRD4-MED1 association in SUM159 cells (Homo sapiens, UniProt O60885); conditions: sensitive cells
# Method: Cells were lysed five days after transfection with siRNAs in RIPA buffer. Proteins were resolved in SDS-polyacrylamide gels (4%-12%) and transferred to PVDF membranes by using a Tris-glycine buffer system. Membranes were blocked with 5% milk powder in 0.1% Tween20 in PBS (PBS-T) for 1 hr at room temperature followed by incubation with primary antibodies at 1:1000 dilution in 2.5% milk PBS-T. For immunoprecipitation, nuclear extracts were prepared as follow: 10×10^6 cells were resuspended in 5 ml Buffer A: 10 mM Tris pH 7.9, 1.5 mM MgCl2, 10 mM KCl, 0.05% NP-40, 1 mM DTT, and protease and phosphatase inhibitors. Cells were incubated on ice for 15 min and gently vortexed every 5 min. After centrifugation at 2,000 g for 5 min, pellets were suspended in 0.3 ml buffer B (20 mM Tris pH 7.9, 25% glycerol, 0.42 M NaCl, 1.5 mM MgCl2, 1 mM KCl, 0.5% NP40, 0.2 mM EDTA, 1 mM DTT, and protease and phosphatase inhibitors) and incubated for 5 min on ice. After centrifugation of the lysates at 14 g for 10 min at 4° C., supernatant was diluted with 0.6 ml buffer A, and added NP-40 to final 0.5% and treated with DNase I. The samples were then incubated at 4° C. overnight with BRD4 or Flag antibodies at 1:100 dilution and immunoprecipitates were collected on Dynabeads Protein G for 2 hr. […]
# [11] = target: T1, BRD4-MED1 association in SUM159 cells; assay: BRD4 immunoprecipitation followed by immunoblot for MED1, resistant cells; assay type: cell-based; parameters: Observations from RIME data were pursued by BRD4 immunoprecipitation followed by immunoblot analysis for MED1 and BRD3; endogenous in cells; host or cells: SUM159 and SUM159R cells (nuclear extracts); conditions: resistant cells
# Method: Cells were lysed five days after transfection with siRNAs in RIPA buffer. Proteins were resolved in SDS-polyacrylamide gels (4%-12%) and transferred to PVDF membranes by using a Tris-glycine buffer system. […] Cells were incubated on ice for 15 min and gently vortexed every 5 min. […] After centrifugation of the lysates at 14 g for 10 min at 4° C., supernatant was diluted with 0.6 ml buffer A, and added NP-40 to final 0.5% and treated with DNase I. The samples were then incubated at 4° C. overnight with BRD4 or Flag antibodies at 1:100 dilution and immunoprecipitates were collected on Dynabeads Protein G for 2 hr. Beads were washed with buffer B containing 150 mM NaCl and 0.5% NP-40 three times and then resuspended in gel loading buffer. Immunoblotting and immunoprecipitation experiments were repeated 2-3 times.
smiles,measurement,setting,value
Cc1sc2c(c1C)C(c1ccc(Cl)cc1)=N[C@@H](CC(=O)OC(C)(C)C)c1nnc(C)n1-2 [JQ1],Cell cycle after release from G2/M,SUM159 cells [1]; JQ1 (500 nM) added 3 hours after release,less pronounced effects
same,Cell cycle after release from G2/M,SUM159 cells [1]; JQ1 (500 nM) administered 1 hour before release,arrested in early G1 with high cyclin D1 levels
same,"Apoptotic response (sub-G1 fraction, Annexin-V staining)",SUM159 cells [2],elicited an apoptotic response
same,pSTAT3 and pJAK2 levels,"[3]; SUM159, after 12 hours",decrease in pSTAT3 and pJAK2
same,MYC level,"[3]; SUM159, at 24 hours",dose-responsive decrease in MYC
same,Acidic β-galactosidase activity (senescence),[4],markedly increased acidic β-galactosidase activity
same,Tumor growth,[5],efficiently inhibited the growth of established tumors
same,Tumor growth,[6],efficiently inhibited the growth of established tumors
same,Tumor growth,[7],efficiently inhibited the growth of established tumors
same,Expression of super-enhancer associated genes versus all active genes,SUM159 and SUM149 cells,significantly more likely to be down-regulated
same,Tumor response to JQ1 treatment,[8],not responsive
same,BRD4 occupancy at Chem-seq-defined SE regions,[9],depleted of BRD4
same,Association of BRD4 with MED1,[10],efficiently displaced BRD4 from MED1
same,Association of BRD4 with MED1,[11],had no such effect

# Source: patent publication US11666580B2, “Mechanism of resistance to bet bromodomain inhibitors” (Dana-Farber Cancer Institute, Inc., priority 2015, dated 2023)
